Data reported in US20160272617A1, “SUBSTITUTED PHENYLALANINE DERIVATIVES” (BAYER PHARMA AKTIENGESELLSCHAFT, priority 2013, published 2016).
pIC50: −log10 of the molar value. Where a name gives a salt, the structure may show the parent alone. Each block holds one compound with its values, some of them ahead of it.

Legend:
human plasmin = target: T1, human plasmin (Homo sapiens, UniProt P00747); assay: Measurement of plasmin inhibition (fluorogenic peptide substrate MeOSuc-Ala-Phe-Lys-AMC); type: biochemical; settings: plasmin from Kordia, 15 min preincubation, 30 min at 22° C., fluorescence
T1 construct: purchased Kordia
Procedure: The plasmin inhibition of the inventive substances is determined using a biochemical test system which utilizes the reaction of a peptidic plasmin substrate to determine the enzymatic activity of human plasmin. Here, plasmin cleaves from the peptic plasmin substrate the C-terminal aminomethylcoumarin (AMC), the fluorescence of which is measured. The determinations are carried out in microtitre plates.
Test substances are dissolved in dimethyl sulphoxide and serially diluted in dimethyl sulphoxide (3000 μM to 0.0078 μM; resulting final concentrations in the test: 50 μM to 0.00013 μM). In each case 1 μl of the diluted substance solutions are placed into the wells of white microtitre plates from Greiner (384 wells). Subsequently, the following are added successively: 20 μl of assay buffer (50 mmol/Tris buffer pH 7.4; 100 mmol/l sodium chloride; 5 mmol/calcium chloride; 0.1% bovine serum albumin) and 20 μl of plasmin from Kordia (0.3 μg/ml in assay buffer) are then added successively. After 15 min of incubation, the enzyme reaction is started by addition of 20 μl of the plasmin substrate MeOSuc-Ala-Phe-Lys-AMC dissolved in assay buffer (150 μM in assay buffer) from Bachem, the mixture is incubated at room temperature (22° C.) for 30 min and fluorescence is then measured (excitation: 360 nm, emission: 460 nm). The measured emissions of the test batches with test substance are compared to those of control batches without test substance (only dimethyl sulphoxide instead of test substance in dimethyl sulphoxide), and the IC50 values are calculated from the concentration/activity relationships.

human factor XIa = target: T2, human factor XIa (Homo sapiens, UniProt P03951); assay: Measurement of FXIa inhibition (fluorogenic peptide substrate Boc-Glu(OBzl)-Ala-Arg-AMC); type: biochemical; settings: factor XIa from Kordia, 15 min preincubation, 30 min at 22° C., fluorescence
T2 construct: purchased Kordia
Summary of the method: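 Released AMC fluorescence (360/460 nm) read after 30 min at 22 °C. The reaction was started with Boc-Glu(OBzl)-Ala-Arg-AMC (10 μM stock) after a 15 min preincubation of the enzyme (0.45 nM stock) with compound (final 50 μM to 0.00013 μM).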

human and animal plasma = assay: Determination of anticoagulatory activity: activated partial thromboplastin time (aPTT) in plasma; settings: concentration of test substance which brings about a 1.5-fold extension of the aPTT; plasma species not given
Summary of the method: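 Citrated plasma (1:9, 0.11 M citrate; 4000 g, 15 min) from human or animal blood incubated with test compound and cephalin/kaolin PTT reagent for 3 min at 37° C.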

T1 sequence (P00747 581-810 limits assumed): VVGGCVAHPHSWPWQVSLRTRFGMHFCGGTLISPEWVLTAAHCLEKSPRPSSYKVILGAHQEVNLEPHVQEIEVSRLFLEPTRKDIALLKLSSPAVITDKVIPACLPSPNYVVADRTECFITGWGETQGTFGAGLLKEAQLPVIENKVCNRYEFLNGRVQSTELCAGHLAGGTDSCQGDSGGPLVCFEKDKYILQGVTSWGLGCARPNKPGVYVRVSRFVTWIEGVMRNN
T1 sequence (P00747 97-580 partner limits assumed): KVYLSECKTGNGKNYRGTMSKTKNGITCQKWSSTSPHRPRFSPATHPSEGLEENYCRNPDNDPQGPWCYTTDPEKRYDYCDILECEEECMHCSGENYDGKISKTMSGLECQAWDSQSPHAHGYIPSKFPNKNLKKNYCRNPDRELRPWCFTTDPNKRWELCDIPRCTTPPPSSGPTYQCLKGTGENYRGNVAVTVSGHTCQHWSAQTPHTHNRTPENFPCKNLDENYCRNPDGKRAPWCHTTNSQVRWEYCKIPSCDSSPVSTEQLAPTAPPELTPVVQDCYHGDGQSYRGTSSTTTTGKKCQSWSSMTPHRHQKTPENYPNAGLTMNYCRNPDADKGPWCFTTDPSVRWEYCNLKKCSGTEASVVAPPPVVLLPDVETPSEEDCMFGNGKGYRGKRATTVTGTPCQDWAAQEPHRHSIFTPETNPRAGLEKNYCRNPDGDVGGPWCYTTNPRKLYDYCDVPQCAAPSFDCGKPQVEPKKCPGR
T2 sequence (P03951 388-625 limits assumed): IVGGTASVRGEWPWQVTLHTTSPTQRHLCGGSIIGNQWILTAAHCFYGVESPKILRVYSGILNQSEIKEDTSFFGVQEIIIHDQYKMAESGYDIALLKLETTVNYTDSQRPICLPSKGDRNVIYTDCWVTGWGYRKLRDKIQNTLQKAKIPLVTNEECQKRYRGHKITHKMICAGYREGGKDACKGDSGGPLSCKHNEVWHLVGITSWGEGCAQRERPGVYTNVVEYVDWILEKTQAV
T2 sequence (P03951 19-387 partner limits assumed): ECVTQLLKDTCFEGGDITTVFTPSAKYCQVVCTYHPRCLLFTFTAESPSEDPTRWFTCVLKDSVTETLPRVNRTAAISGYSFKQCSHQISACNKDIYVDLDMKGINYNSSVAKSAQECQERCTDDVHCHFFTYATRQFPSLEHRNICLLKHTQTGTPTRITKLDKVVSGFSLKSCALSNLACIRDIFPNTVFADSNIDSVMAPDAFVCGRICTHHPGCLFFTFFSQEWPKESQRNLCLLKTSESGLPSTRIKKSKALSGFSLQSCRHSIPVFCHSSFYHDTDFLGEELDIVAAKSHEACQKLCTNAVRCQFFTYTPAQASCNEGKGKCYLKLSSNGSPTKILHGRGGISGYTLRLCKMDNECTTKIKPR

pIC50 (human plasmin): 8.80
pIC50 (human factor XIa): 8.17
Compound: Cc1cc(C(=O)N[C@@H](C)C(F)(F)F)ccc1-c1ccc(C[C@H](NC(=O)[C@H]2CC[C@H](CN)CC2)C(=O)Nc2ccc3[nH]c(=O)[nH]c3c2)cc1 [Example 133, 4′-{(2S)-2-({[trans-4-(Aminomethyl)cyclohexyl]carbonyl}amino)-3-oxo-3-[(2-oxo-2,3-dihydro-1H-benzimidazol-5-yl)amino]propyl}-2-methyl-N-[(2S)-1,1,1-trifluoropropan-2-yl]biphenyl-4-carboxamide]
aPTT (human and animal plasma): 0.1 µmol/L

Compound: CC(C)NC(=O)c1ccc(-c2ccc(C[C@H](NC(=O)[C@H]3CC[C@H](CN)CC3)C(=O)Nc3cc(F)c4cn[nH]c4c3)cc2)c(Cl)c1 [Example 134, 4′-{(2S)-2-({[trans-4-(Aminomethyl)cyclohexyl]carbonyl}amino)-3-[(4-fluoro-1H-indazol-6-yl)amino]-3-oxopropyl}-2-chloro-N-isopropylbiphenyl-4-carboxamide hydrochloride]
pIC50 (human plasmin): 9.19
pIC50 (human factor XIa): 8.05
aPTT (human and animal plasma): 0.44 µmol/L

Compound: Cc1cc(C(=O)NC(C)C)ccc1-c1ccc(C[C@H](NC(=O)[C@H]2CC[C@H](CN)CC2)C(=O)Nc2ccc3c(=O)[nH][nH]c3c2)cc1 [Example 135, 4′-{(2S)-2-({[trans-4-(Aminomethyl)cyclohexyl]carbonyl}amino)-3-oxo-3-[(3-oxo-2,3-dihydro-1H-indazol-6-yl)amino]propyl}-N-isopropyl-2-methylbiphenyl-4-carboxamide hydrochloride]
pIC50 (human plasmin): 9.02
pIC50 (human factor XIa): 8.66
aPTT (human and animal plasma): 0.24 µmol/L

Compound: CC(NC(=O)c1ccc(-c2ccc(CC(NC(=O)[C@H]3CC[C@H](CN)CC3)C(=O)Nc3ccc(-c4nnn[nH]4)cc3)cc2)c(Cl)c1)C1CC1 (stereo partly drawn) [Example 136, hydrochloride]
pIC50 (human plasmin): 8.82
pIC50 (human factor XIa): 8.92
aPTT (human and animal plasma): 0.29 µmol/L

Compound: CC(C)NC(=O)c1ccc(-c2ccc(C[C@H](NC(=O)[C@H]3CC[C@H](CN)CC3)C(=O)Nc3ccc4[nH]c(=O)[nH]c4c3)cc2)c(Cl)c1 [Example 137, 4′-{(2S)-2-({[trans-4-(Aminomethyl)cyclohexyl]carbonyl}amino)-3-oxo-3-[(2-oxo-2,3-dihydro-1H-benzimidazol-5-yl)amino]propyl}-2-chloro-N-isopropylbiphenyl-4-carboxamide hydrochloride]
pIC50 (human plasmin): 8.66
pIC50 (human factor XIa): 7.96
aPTT (human and animal plasma): 0.07 µmol/L

Compound: Cc1cc(C(=O)NC2CCC2)ccc1-c1ccc(C[C@H](NC(=O)[C@H]2CC[C@H](CN)CC2)C(=O)Nc2ccc(-c3nnn[nH]3)cc2)cc1 [Example 138, 4′-[(2S)-2-({[trans-4-(Aminomethyl)cyclohexyl]carbonyl}amino)-3-oxo-3-{[4-(1H-tetrazol-5-yl)phenyl]amino}propyl]-N-cyclobutyl-2-methylbiphenyl-4-carboxamide hydrochloride]
pIC50 (human plasmin): 8.64
pIC50 (human factor XIa): 9.08
aPTT (human and animal plasma): 0.25 µmol/L

Compound: Cc1cc(C(=O)NC(C)CO)ccc1-c1ccc(C[C@H](NC(=O)[C@H]2CC[C@H](CN)CC2)C(=O)Nc2ccc(-c3nnn[nH]3)cc2)cc1 (stereo partly drawn) [Example 139, 4′-[(2S)-2-({[trans-4-(Aminomethyl)cyclohexyl]carbonyl}amino)-3-oxo-3-{[4-(1H-tetrazol-5-yl)phenyl]amino}propyl]-N-(1-hydroxypropan-2-yl)-2-methylbiphenyl-4-carboxamide hydrochloride]
pIC50 (human plasmin): 7.89
pIC50 (human factor XIa): 8.39
aPTT (human and animal plasma): 0.17 µmol/L

Compound: Cc1cc(C(=O)NC(C)C)ccc1-c1ccc(C[C@H](NC(=O)[C@H]2CC[C@H](CN)CC2)C(=O)Nc2ccc3c(c2)[nH]c(=O)n3C)cc1 [Example 140, 4′-{(2S)-2-({[trans-4-(Aminomethyl)cyclohexyl]carbonyl}amino)-3-[(1-methyl-2-oxo-2,3-dihydro-1H-benzimidazol-5-yl)amino]-3-oxopropyl}-N-isopropyl-2-methylbiphenyl-4-carboxamide hydrochloride]
pIC50 (human plasmin): 8.82
pIC50 (human factor XIa): 7.89
aPTT (human and animal plasma): 0.25 µmol/L

pIC50 (human plasmin): 8.80
pIC50 (human factor XIa): 8.41
Compound: Cc1cc(C(=O)NC2CC2)ccc1-c1ccc(C[C@H](NC(=O)[C@H]2CC[C@H](CN)CC2)C(=O)Nc2ccc3[nH]nnc3c2)cc1 [Example 141, 4′-[(2S)-2-({[trans-4-(Aminomethyl)cyclohexyl]carbonyl}amino)-3-(1H-benzotriazol-5-ylamino)-3-oxopropyl]-N-cyclopropyl-2-methylbiphenyl-4-carboxamide hydrochloride]
aPTT (human and animal plasma): 0.30 µmol/L

Compound: Cc1cc(C(=O)NC(C)C)ccc1-c1ccc(C[C@H](NC(=O)[C@H]2CC[C@H](CN)CC2)C(=O)Nc2ccc3nc[nH]c3c2)cc1 [Example 142, 4′-[(2S)-2-({[trans-4-(Aminomethyl)cyclohexyl]carbonyl}amino)-3-(1H-benzimidazol-6-ylamino)-3-oxopropyl]-N-isopropyl-2-methylbiphenyl-4-carboxamide hydrochloride]
pIC50 (human plasmin): 8.68
pIC50 (human factor XIa): 7.82
aPTT (human and animal plasma): 0.33 µmol/L

Compound: Cc1cc(C(=O)NC(C)C)ccc1-c1ccc(C[C@H](NC(=O)[C@H]2CC[C@H](CN)CC2)C(=O)Nc2ccc(-c3nnc(CCC(=O)O)[nH]3)cc2)cc1 [Example 157, 3-{5-[4-({(2S)-2-({[trans-4-(Aminomethyl)cyclohexyl]carbonyl}amino)-3-[4′-(isopropyl-carbamoyl)-2′-methylbiphenyl-4-yl]propanoyl}amino)phenyl]-4H-1,2,4-triazol-3-yl}propanoic acid hydrochloride]
pIC50 (human plasmin): 8.77
pIC50 (human factor XIa): 8.44
aPTT (human and animal plasma): 0.33 µmol/L

Compound: Cc1cc(C(=O)NC(C)C)ccc1-c1ccc(C[C@H](NC(=O)[C@H]2CC[C@H](CN)CC2)C(=O)Nc2cc(Cl)c3[nH]c(=O)[nH]c3c2)cc1 [Example 158, 4′-{(2S)-2-({[trans-4-(Aminomethyl)cyclohexyl]carbonyl}amino)-3-[(7-chloro-2-oxo-2,3-dihydro-1H-benzimidazol-5-yl)amino]-3-oxopropyl}-N-isopropyl-2-methylbiphenyl-4-carboxamide hydrochloride]
pIC50 (human plasmin): 9.37
pIC50 (human factor XIa): 8.42
aPTT (human and animal plasma): 0.1 µmol/L

Compound: Cc1cc(C(=O)NC(C)C)ccc1-c1ccc(C[C@H](NC(=O)[C@H]2CC[C@H](CN)CC2)C(=O)Nc2cc(Cl)c3cn[nH]c3c2)cc1 [Example 159, 4′-{(2S)-2-({[trans-4-(Aminomethyl)cyclohexyl]carbonyl}amino)-3-[(4-chloro-1H-indazol-6-yl)amino]-3-oxopropyl}-N-isopropyl-2-methylbiphenyl-4-carboxamide hydrochloride]
pIC50 (human plasmin): 9.49
pIC50 (human factor XIa): 8.46
aPTT (human and animal plasma): 0.36 µmol/L

Compound: Cc1cc(C(=O)NC2CCC2)ccc1-c1ccc(C[C@H](NC(=O)[C@H]2CC[C@H](CN)CC2)C(=O)Nc2ccc3c(=O)[nH][nH]c3c2)cc1 [Example 162, 4′-{(2S)-2-({[trans-4-(Aminomethyl)cyclohexyl]carbonyl}amino)-3-oxo-3-[(3-oxo-2,3-dihydro-1H-indazol-6-yl)amino]propyl}-N-cyclobutyl-2-methylbiphenyl-4-carboxamide hydrochloride]
pIC50 (human plasmin): 8.96
pIC50 (human factor XIa): 8.74
aPTT (human and animal plasma): 0.15 µmol/L

Compound: Cc1cc(C(=O)N2CCC3CNC(=O)C32)ccc1-c1ccc(C[C@H](NC(=O)[C@H]2CC[C@H](CN)CC2)C(=O)Nc2ccc3cn[nH]c3c2)cc1 (stereo partly drawn) [Example 163, trans-4-(Aminomethyl)-N-[(2S)-1-(1H-indazol-6-ylamino)-3-{2′-methyl-4′-[(6-oxohexahydropyrrolo[3,4-b]pyrrol-1(2H)-yl)carbonyl]biphenyl-4-yl}-1-oxopropan-2-yl]cyclohexanecarboxamide hydrochloride]
pIC50 (human plasmin): 8.06
pIC50 (human factor XIa): 8.00
aPTT (human and animal plasma): 0.07 µmol/L

Compound: Cc1cc(C(=O)NC2CC(O)C2)ccc1-c1ccc(C[C@H](NC(=O)[C@H]2CC[C@H](CN)CC2)C(=O)Nc2ccc3cn[nH]c3c2)cc1 (stereo partly drawn) [Example 164, 4′-[(2S)-2-({[trans-4-(Aminomethyl)cyclohexyl]carbonyl}amino)-3-(1H-indazol-6-ylamino)-3-oxopropyl]-N-(3-hydroxycyclobutyl)-2-methylbiphenyl-4-carboxamide hydrochloride]
pIC50 (human plasmin): 7.89
pIC50 (human factor XIa): 8.12
aPTT (human and animal plasma): 0.13 µmol/L

Compound: Cc1cc(C(=O)NC2CC2)ccc1-c1ccc(C[C@H](NC(=O)[C@H]2CC[C@H](CN)CC2)C(=O)Nc2ccc3cn[nH]c3c2)cc1 [Example 167, 4′-[(2S)-2-({[trans-4-(Aminomethyl)cyclohexyl]carbonyl}amino)-3-(1H-indazol-6-ylamino)-3-oxopropyl]-N-cyclopropyl-2-methylbiphenyl-4-carboxamide hydrochloride]
pIC50 (human plasmin): 8.72
pIC50 (human factor XIa): 8.22
aPTT (human and animal plasma): 0.12 µmol/L
